{"source": "patent US20260174783A1", "about": "“HALOBETASOL PROPIONATE-LIDOCAINE FORMULATIONS” (priority 2023, published 2026)", "experiment": "In vitro permeation test: delivery of Halobetasol Propionate to the skin", "format": "in vitro ADME", "conditions": "Formulations 1 and 2", "source_text": "The ability of the formulations of the present invention to deliver the APIs to their active sites was investigated by in vitro permeation tests."}
{"smiles": "CCC(=O)O[C@]1(C(=O)CCl)[C@@H](C)C[C@H]2[C@@H]3C[C@H](F)C4=CC(=O)C=C[C@]4(C)[C@@]3(F)[C@@H](O)C[C@@]21C", "note": "[Halobetasol Propionate, (6α, 11β, 16β)-21-Chloro-6,9-difluoro-11-hydroxy-16-methyl-17-(1-oxopropoxy) pregna-1,4-diene-3,20-dione]", "values": [{"measurement": "Halobetasol Propionate receiver media concentration", "value": "no receiver media concentration"}]}
